Measured values from patent US20170348337A1, “MULTIFUNCTIONAL MEMBRANE-ACTIVE AMINOGLYCOSIDE-PEPTIDE CONJUGATES” (priority 2014, published 2017).
In brackets after ≈: the same amount, converted by molar mass. Like-named read-outs stand apart in the source and are kept apart here. Residues, ends and D or L forms follow the SMILES beside them. No end group written: not given here. Tobramycin = aminoglycoside, conjugated at the peptide N-terminus; Neomycin = aminoglycoside, conjugated at the peptide N-terminus

What was measured:
E. coli persisters = experiment: E. coli persister killing assay, pentobra plus adjuvant; type: cell-based; conditions: 10 mM arabinose; 1.5 hours
Experimental: Bacterial persisters were prepared essentially as described above, by growing an E. coli culture for 18-24 hours, at which point 100 μg/ml ampicillin was added for a 4-hour incubation to kill non-persisters. The cells were washed with M9 salts without carbon source, and subsequently diluted with M9 salts to an appropriate cell count for the killing assay. Approximately 10^6 E. coli cells per well were placed in a total volume of 100 μl in a 96-well plate on a shaker at 37° C. for 1.5 hours in the presence of each the following, respectively: Pentobra, Pentobra-plus-glucose (as adjuvant), tobramycin, tobramycin-plus-glucose (as adjuvant). A concentration series was used with 50, 25, 12.5, 6.25 and 0 μM for pentobra or tobramycin, and correspondingly 10, 5, 2.5, 1.25 and 0 mM for glucose. Incubation, dilution, and plating for colony assay determination were as described above. In a separate experiment, approximately 10^6 E. coli cells per well were placed in a total volume of 100 μl in a 96-well plate at 37° C. for 1.5 hours in the presence of each the following, respectively: pentobra, pentobra-plus-10 mM arabinose (as adjuvant), tobramycin, tobramycin-plus-10 mM arabinose (as adjuvant).
Persister cells were isolated and experiments to test for bactericidal activity were performed as described in Example 7 above.

P. aeruginosa = experiment: antimicrobial activity (MIC) of P-L-A conjugates; type: cell-based; conditions: for MIC: stationary
sebocytes = experiment: cell viability assay (MTT section, CellTiter-GLO); type: cell-based, human; conditions: 26 μM; over 72 hr
Experimental: (§1) Cell proliferation experiments were performed in 96-well plates (5 replicates). 26 μM of Pentobra and Tobramycin treatments were initiated at 24 hours post-seeding for 3 days. Stocks and dilutions of PLX4032/vemurafenib (Plexxikon) and AZD6244/selumetenib (Selleck Chemicals) were made in dimethyl sulfoxide (DMSO). Three cell types (PBMCs, Keratinocytes and Sebocytes cell lines) were tested. Cells were quantified using CellTiter-GLO Luminescence (Promega) following the manufacturer's recommendations.

[1] = system: Peripheral Blood Mononuclear Cells (PBMCs); experiment: cell viability assay (MTT section, CellTiter-GLO); type: cell-based, human; conditions: 26 μM; over 72 hr
Experimental: as §1

keratinocytes = experiment: cell viability assay (MTT section, CellTiter-GLO); type: cell-based, human; conditions: 26 μM; over 72 hr
Experimental: as §1

NIH/3T3 cells [2] = experiment: CellTox Green cytotoxicity assay; type: cell-based, mouse; conditions: concentrations up to 100 μM; 8 h incubation
Experimental: CellTox™ Green assay. The cytotoxicity of Pentobra was investigated on NIH/3T3 cells (ATCC) using CellTox™ Green assay (Promega, United States of America). Cells were seeded in a 96 well plate at a concentration of 2.5×10^3 cells/well. 100 μL of DMEM media were added to each well containing 0.2% CellTox green dye and varying concentrations of Pentobra, CPP or tobramycin and incubated for 8 and 24 h before the plate was read using an excitation wavelength of 485 nm and emission filter of 535 nm on a microplate reader (Beckman Coulter, DTX 880 Multimode Detector). A lysis solution, known to be toxic to the cells, was used as a positive control which represented the maximum dead cell signal obtainable from non-proliferating cells. The untreated cell population represented the maximal negative control signal obtainable at the end of an exposure period. The fluorescence values were normalized (from positive and negative controls) and converted to corresponding viability values.

Klebsiella (Kleb) = experiment: microbe, parasite or virus in culture; type: cell-based; conditions: isolate Kleb, W6921701-1
Excerpt: (§2) Pentobra was screened against a broad panel of microbial pathogens, including strains of E. coli, MRSA, Klebsiella (Kleb), Acinetobacter (AcB), Vancomycin-Sensitive Enterococci (VSE) and Vancomycin-Resistant Enterococci (VRE), and specifically including E. faecalis samples. […] The experimenter reported the minimum inhibitory concentration (MIC) in mass units per unit volume (μg/mL) for each compound, and MIC data were converted into molar concentrations (μM) due to the large difference between the molecular weight of tobramycin (467.5 g/mol) and Pentobra (2277 g/mol).

[3] = system: Vancomycin-Resistant Enterococci (VRE); experiment: microbe, parasite or virus in culture; type: cell-based
Excerpt: as §2

MRSA = experiment: microbe, parasite or virus in culture; type: cell-based; conditions: isolate MRSA
Excerpt: as §2

E. coli [4] = experiment: microbe, parasite or virus in culture; type: cell-based
Excerpt: as §2

Acinetobacter (AcB) = experiment: microbe, parasite or virus in culture; type: cell-based; conditions: isolate AcB, PM1434
Excerpt: as §2

[5] = system: Vancomycin-Sensitive Enterococci (VSE); experiment: organism not typed; type: cell-based
Excerpt: as §2

S. aureus = experiment: antimicrobial activity (MIC) of P-L-A conjugates; type: cell-based
E. coli [6] = experiment: antimicrobial activity (MIC) of P-L-A conjugates; type: cell-based
NIH/3T3 cells [7] = experiment: LIVE/DEAD viability/cytotoxicity assay; conditions: 100 μM; 8 h
Experimental: The effect of Pentobra on the plasma membrane integrity was investigated on NIH/3T3 cells using the Live/Dead® Viability/Cytotoxicity Kit (Molecular Probes). Briefly, 50,000 cells/well were incubated in a 24-well plate and treated with 100 μM of tobramycin, Pen peptide or Pentobra for 8 h at 37° C. Then, the cells were stained with 100 μL of the live/Dead assay reagents (2 μM calcein and 4 μM ethidium homodimer), and incubated at 37° C. for 20 min. The labeled cells were counted using a Zeiss Axiovert Observer Z1 inverted fluorescent microscope (at least 160 cells were counted for each treatment).
In addition, the effect of Pentobra on the cell membrane integrity was evaluated using the LIVE/DEAD® cell viability assay. This assay simultaneously determined intracellular esterase activity and plasma membrane integrity using two distinct dyes: a) calcein, a membrane permeable polyanionic dye that must be hydrolyzed by intracellular esterases (dead cells lack active esterases) to produce a green fluorescence and b) ethidium homodimer, a membrane impermeable red fluorescent dye that can only penetrate cells with compromised membranes.

[8] = cited from earlier work

Compound: O=C[C@@H](O)[C@H](O)[C@H](O)CO [Arabinose, arabinose]
- effect on killing potency of pentobra (E. coli persisters): enhanced pentobra, but to a lesser extent

Compound: CC[C@H](C)[C@H](NC(=O)[C@H](CCCCN)NC(=O)[C@@H](NC(=O)[C@H](CCC(N)=O)NC(=O)[C@H](CCCNC(=N)N)NC(=O)CCC(=O)OC[C@H]1O[C@H](O[C@@H]2[C@@H](O)[C@H](O[C@H]3O[C@H](CN)[C@@H](O)C[C@H]3N)[C@@H](N)C[C@H]2N)[C@H](O)[C@@H](N)[C@@H]1O)[C@@H](C)CC)C(=O)N[C@@H](Cc1c[nH]c2ccccc12)C(=O)N[C@@H](Cc1ccccc1)C(=O)N[C@@H](CCC(N)=O)C(=O)N[C@@H](CC(N)=O)C(=O)N[C@@H](CCCNC(=N)N)C(=O)N[C@@H](CCCNC(=N)N)C(=O)N[C@@H](Cc1c[nH]c2ccccc12)C(=O)O [Pentobra] (HELM PEPTIDE1{[NC[C@H]1O[C@H](O[C@H]2[C@H](O)[C@@H](O[C@H]3O[C@H](COC(=O)CCC(=O)[*:2])[C@@H](O)[C@H](N)[C@H]3O)[C@H](N)C[C@@H]2N)[C@H](N)C[C@@H]1O].R.Q.I.K.I.W.F.Q.N.R.R.W}$$$$V2.0)
- MIC (μM) P. aeruginosa (mid-log) (P. aeruginosa): 6.25-12.5 μM
- MIC (P. aeruginosa): 25 µM (≈ 57 µg/mL)
- viability (sebocytes): did not affect the viability
- viability [1]: did not affect the viability
- viability (keratinocytes): did not affect the viability
- cytotoxic effect (NIH/3T3 cells [2]): did not show any cytotoxic effect
- MIC (Klebsiella (Kleb)): 7 µM (≈ 16 µg/mL)
- MIC ([3]; isolate 24670, VRE^? (second entry)): 14 µM (≈ 31.9 µg/mL)
- MIC ([3]; isolate F6541102, VRE): >56 µM
- MIC ([3]; isolate H6926031, VRE*): 14 µM (≈ 31.9 µg/mL)
- MIC ([3]; isolate M6865034, VRE): 14 µM (≈ 31.9 µg/mL)
- MIC ([3]; isolate S3899836, VRE^? (second entry)): 14 µM (≈ 31.9 µg/mL)
- MIC ([3]; isolate VRE, 24670): 14 µM (≈ 31.9 µg/mL)
- MIC ([3]; isolate VRE, S3899836): 14 µM (≈ 31.9 µg/mL)
- MIC (MRSA; F2806774): 56 µM (≈ 128 µg/mL)
- MIC (MRSA; H2867813): >56 µM
- MIC (E. coli [4]; isolate ATCC 25922, Ecoli (second entry)): 4 µM (≈ 9.12 µg/mL)
- MIC (E. coli [4]; isolate ATCC Ecoli, 25922 (first entry)): 2 µM (≈ 4.56 µg/mL)
- MIC (E. coli [4]; isolate Ecoli,YD461): 7 µM (≈ 16 µg/mL)
- MIC (Acinetobacter (AcB)): 7 µM (≈ 16 µg/mL)
- MIC ([5]; isolate S4895552, VSE, LZD-R): 14 µM (≈ 31.9 µg/mL)
- MIC ([5]; isolate W7171143,VSE): 56 µM (≈ 128 µg/mL)
- MIC ([5]; isolate W7214342,VSE): 28 µM (≈ 63.9 µg/mL)
- MIC ([5]; isolate X4540299, VSE): 14 µM (≈ 31.9 µg/mL)
- MIC (μM) S. aureus (mid-log) (S. aureus): 25 μM
- MIC (μM) E. coli (mid-log) (E. coli [6]): 6.25 μM
- cytotoxicity (percentage of red stained cells) (NIH/3T3 cells [7]): no statistical difference in cytotoxicity
- plasma membrane integrity of eukaryotic cells (NIH/3T3 cells [7]): did not induce any loss of plasma membrane integrity

Compound: NCC[C@H](O)C(=O)N[C@@H]1C[C@H](N)[C@@H](O[C@H]2O[C@H](CN)[C@@H](O)[C@H](O)[C@H]2O)[C@H](O)[C@H]1O[C@H]1O[C@H](CO)[C@@H](O)[C@H](N)[C@H]1O [amikacin]
- octanol→water partition coefficient Log P ([8]; aminoglycosides): −3.34

Compound: NC[C@H]1O[C@H](O[C@H]2[C@H](O)[C@@H](O[C@H]3O[C@H](CO)[C@@H](O)[C@H](N)[C@H]3O)[C@H](N)C[C@@H]2N)[C@H](O)[C@@H](O)[C@@H]1O [kanamycin]
- octanol→water partition coefficient Log P ([8]; aminoglycosides): −4.55

Compound: NC[C@@H]1O[C@H](O[C@H]2[C@@H](O)[C@H](O[C@@H]3[C@@H](O)[C@H](N)C[C@H](N)[C@H]3O[C@H]3O[C@H](CO)[C@@H](O)[C@H](O)[C@H]3N)O[C@@H]2CO)[C@H](N)[C@@H](O)[C@@H]1O [paromomycin]
- octanol→water partition coefficient Log P ([8]; aminoglycosides): −3.27

Compound: [H]/N=C(/N)N[C@H]1[C@H](O)[C@@H](O)[C@H](O[C@@H]2O[C@@H](C)[C@](O)(C=O)[C@H]2O[C@@H]2O[C@@H](CO)[C@H](O)[C@@H](O)[C@@H]2NC)[C@@H](N/C(N)=N\[H])[C@@H]1O [streptomycin]
- octanol→water partition coefficient Log P ([8]; aminoglycosides): −2.53

Compound: OC[C@H]1O[C@@](CO)(O[C@H]2O[C@H](CO)[C@@H](O)[C@H](O)[C@H]2O)[C@@H](O)[C@@H]1O [sucrose]
- octanol→water partition coefficient Log P ([8]; sugars, Mazzobre et. al. 2005): −3.30

Compound: OC[C@H]1O[C@H](O[C@H]2O[C@H](CO)[C@@H](O)[C@H](O)[C@H]2O)[C@H](O)[C@@H](O)[C@@H]1O [trehalose]
- octanol→water partition coefficient Log P ([8]; sugars, Mazzobre et. al. 2005): −3.77

Compound: Amphi Pentobra: Tobramycin-GWIRNQFRKIWQR [SEQ ID NO: 81], N-terminal conjugation
- MIC (μM) P. aeruginosa (mid-log) (P. aeruginosa): 12.5 μM
- MIC (μM) E. coli (mid-log) (E. coli [6]): 3.12 μM

Compound: Neo13: Neomycin-GFHGVKNLARRIL [SEQ ID NO: 109], N-terminal conjugation
- MIC (μM) P. aeruginosa (mid-log) (P. aeruginosa): 12.5 μM
- MIC (P. aeruginosa): 50 µM
- MIC (μM) S. aureus (mid-log) (S. aureus): 12.5 μM

Compound: NeoGP11: Neomycin-GPWWFKWPRLI [SEQ ID NO: 123], N-terminal conjugation
- MIC (μM) P. aeruginosa (mid-log) (P. aeruginosa): 12.5 μM
- MIC (P. aeruginosa): 50 µM

Compound: RQIKIWFQNRRW [Pen peptide]
- cytotoxicity (percentage of red stained cells) (NIH/3T3 cells [7]): no statistical difference in cytotoxicity

Compound: Reverse Pentobra: Tobramycin-GWRRNQFWIKIQR [SEQ ID NO: 95], N-terminal conjugation
- MIC (μM) P. aeruginosa (mid-log) (P. aeruginosa): 12.5 μM
- MIC (μM) E. coli (mid-log) (E. coli [6]): 3.12 μM

Compound: TobrGW12: Tobramycin-GWRNQIRKGWQR [SEQ ID NO: 135], N-terminal conjugation
- MIC (μM) P. aeruginosa (mid-log) (P. aeruginosa): 6.25 μM
- MIC (P. aeruginosa): 12.5 µM

Compound: gentamycin
- octanol→water partition coefficient Log P ([8]; aminoglycosides): −2.47

Compound: neomycin
- MIC (P. aeruginosa): 12.5 µM
- octanol→water partition coefficient Log P ([8]; aminoglycosides): −3.65
- MIC (μM) S. aureus (mid-log) (S. aureus): 1.56 μM
